# Measured values reported in article PMC3265452 (PLoS Neglected Tropical Diseases, 2012).
# Structures can show the parent of a compound that is named as a salt.
# Molecular target: AaDOP2 (Aedes aegypti, UniProt H6D5H2)
# Test: AaDOP2 antagonist screen of the LOPAC1280 library (HEK-CRELuc-Aadop2 cells, luminescence)
# Assay type: cell-based
# Settings: not given
# Chain of AaDOP2 (H6D5H2 1-476): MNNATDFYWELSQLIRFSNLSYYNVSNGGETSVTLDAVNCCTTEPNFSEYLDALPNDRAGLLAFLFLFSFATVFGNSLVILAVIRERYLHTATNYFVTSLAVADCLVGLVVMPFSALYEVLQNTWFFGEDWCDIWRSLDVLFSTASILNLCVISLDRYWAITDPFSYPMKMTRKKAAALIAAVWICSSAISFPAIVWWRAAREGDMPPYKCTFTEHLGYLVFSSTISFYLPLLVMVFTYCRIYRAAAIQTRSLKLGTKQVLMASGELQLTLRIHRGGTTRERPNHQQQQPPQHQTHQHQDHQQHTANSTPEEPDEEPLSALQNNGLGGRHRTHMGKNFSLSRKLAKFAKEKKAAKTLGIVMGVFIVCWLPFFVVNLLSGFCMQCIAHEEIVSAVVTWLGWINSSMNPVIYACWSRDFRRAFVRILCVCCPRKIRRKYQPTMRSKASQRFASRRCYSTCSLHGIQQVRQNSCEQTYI
row,Compound,"Compound effect (percent receptor signaling in presence of test compound, relative lux units relative to the SCH23390 control)"
1,"Oc1ccc2c3c1O[C@H]1c4oc5ccccc5c4C[C@@]4(O)[C@@H](C2)N(CC2CC2)CC[C@]314 [Compound 886, Naltriben methanesulfonate]",102
2,"O=C(O)CCCCCCC1C(=O)NC(=O)N1CCC(O)C1CCCCC1 (stereo not drawn) [Compound 888, BW 245C]",120
3,"C=CCN1CC[C@]23c4c5ccc(O)c4O[C@H]2/C(=N/NC(=O)c2ccccc2)CC[C@@]3(O)[C@H]1C5 [Compound 889, Naloxone benzoylhydrazone]",101
4,"O=c1[nH]c2cc(C(F)(F)F)ccc2n1-c1cc(C(F)(F)F)ccc1O [Compound 890, NS-1619]",86
5,"C=CCN1CC[C@]23c4c5ccc(O)c4O[C@@H]2/C(=N/N=C2\CC[C@@]4(O)C6Cc7ccc(O)c8c7[C@@]4(CCN6CC=C)[C@@H]2O8)CC[C@@]3(O)C1C5.Cl.Cl [Compound 891, Naloxonazine dihydrochloride]",86
6,"O=c1onc2n1-c1cc(Br)ccc1OC2 [Compound 893, NS 2028]",98
7,"CCn1cc(C(=O)O)c(=O)c2cc3c(cc21)OCO3 [Compound 896, Oxolinic acid]",108
8,"Cn1cnc2c(NCc3ccccc3)nc(NCCO)nc21 [Compound 897, Olomoucine]",47
9,"CCCCCCCC/C=C\CCCCCCCC(=O)O [Compound 898, Oleic Acid]",95
10,"Cc1cc(C(C)(C)C)c(O)c(C)c1CC1=NCCN1 [Compound 899, Oxymetazoline hydrochloride]",84
11,"NC(=O)C(=O)O [Compound 900, Sodium Oxamate]",91
12,"CCN(CC)CC#CCOC(=O)C(O)(c1ccccc1)C1CCCCC1 (stereo not drawn) [Compound 901, Oxybutynin Chloride]",83
13,"NC(=O)CN1CC(O)CC1=O (stereo not drawn) [Compound 902, Oxiracetam]",101
14,"C[C@@H]1O[C@@H](O[C@H]2C[C@@H](O)[C@]3(CO)[C@H]4[C@H](O)C[C@]5(C)[C@@H](C6=CC(=O)OC6)CC[C@]5(O)[C@@H]4CC[C@]3(O)C2)[C@H](O)[C@H](O)[C@H]1O [Compound 903, Ouabain]",50
15,"O=c1onc2cnc3ccccc3n12 [Compound 904, ODQ]",98
16,"CC1COc2c(N3CCN(C)CC3)c(F)cc3c(=O)c(C(=O)O)cn1c23 (stereo not drawn) [Compound 907, Ofloxacin]",92
17,"O=C(O)/C=C/C(=O)O.O=C(O)/C=C/C(=O)O.O=C(O)/C=C/C(=O)O.O=C1CCCN1CC#CCN1CCCC1.O=C1CCCN1CC#CCN1CCCC1 [Compound 908, Oxotremorine sesquifumarate salt]",88
18,"O=c1[nH]c2ccccc2n1CCCN1CCN(C(c2ccccc2)c2ccccc2)CC1 [Compound 909, Oxatomide]",72
19,"Cn1cc(C2=C(c3ccc(Cl)cc3Cl)C(=O)NC2=O)c2ccccc21 [Compound 910, SB 216763]",80
20,"O=C(O)CCc1nc(-c2ccccc2)c(-c2ccccc2)o1 [Compound 911, Oxaprozin]",106
21,"C[N+](C)(C)CC#CCN1CCCC1=O [Compound 912, Oxotremorine methiodide]",99
22,"CC(=O)[C@H]1CC[C@H]2[C@@H]3CCC4=CC(=O)CC[C@]4(C)[C@H]3CC[C@]12C [Compound 914, Progesterone]",77
23,"CCCCCCCCCCCCCCCC(=O)NCCO [Compound 915, Palmitoylethanolamide]",89
24,"N=C(N)c1ccc(OCCCCCOc2ccc(C(=N)N)cc2)cc1 [Compound 917, Pentamidine isethionate]",87
25,"C=C1C(=O)O[C@H]2[C@H]1CC/C(C)=C/CC[C@@]1(C)O[C@@H]21 [Compound 919, Parthenolide]",74
26,"CC(C)NCC(O)COc1cccc2[nH]ccc12 (stereo not drawn) [Compound 920, Pindolol]",96
27,"N#Cc1c(-c2ccccc2)no[n+]1[O-] [Compound 925, 4-Phenyl-3-furoxancarbonitrile]",93
28,"CC(=O)CCCCn1c(=O)c2c(ncn2C)n(C)c1=O [Compound 926, Pentoxifylline]",119
29,"O=c1[nH]c2ccccc2n1C1CCN(CCCC(c2ccc(F)cc2)c2ccc(F)cc2)CC1 [Compound 927, Pimozide]",61
30,"CC(=O)O[C@H]1C[C@@H]2CC[C@@H]3[C@H](CC[C@@]4(C)[C@H]3C[C@H]([N+]3(C)CCCCC3)[C@@H]4OC(C)=O)[C@@]2(C)C[C@@H]1[N+]1(C)CCCCC1 [Compound 929, Pancuronium bromide]",96

# Same assay, conditions: 10 µM compound, 300 nM dopamine, 2 hr; hit = compound effect <20
row,Compound,"Compound effect (percent receptor signaling in presence of test compound, relative lux units relative to the SCH23390 control)"
1,"COc1ccccc1N1CCN(CC(O)COc2cccc3ccccc23)CC1.Cl.Cl (stereo not drawn) [Compound 887, Naftopidil dihydrochloride]",79%
2,"NS(=O)(=O)c1cccc2c1c([N+](=O)[O-])cc1nc([O-])c([O-])nc12.[Na+].[Na+] [Compound 892, NBQX disodium]",95%
3,"CCCCCCCC/C=C\CCCCCCCC(=O)NCCO [Compound 895, N-Oleoylethanolamine]",105%
4,"N[C@@H](COP(=O)(O)O)C(=O)O [Compound 921, O-Phospho-L-serine]",102%
5,"CCCC(C(=O)OCCN(CC)CC)(c1ccccc1)c1ccccc1.Cl [Compound 923, SKF-525A hydrochloride]",88%
6,"O=C(O)CC[C@@H](C(=O)O)N1C(=O)c2ccccc2C1=O [Compound 928, L-Glutamic acid, N-phthaloyl-]",106%
